One assay has as its system Pseudomonas aeruginosa. Description: Antibacterial activity against Pseudomonas aeruginosa at 200 ug/100uL after 24 hrs by agar well diffusion method. Type of assay: functional.
The test system of a further assay is Shigella boydii. Kind of assay: Antibacterial activity against Shigella boydii at 200 ug/100uL after 24 hrs by agar well diffusion method. Type of assay: functional.
In another assay the test system is Staphylococcus aureus. Kind of assay: Antibacterial activity against Staphylococcus aureus at 200 ug/100uL after 24 hrs by agar well diffusion method. Type of assay: functional. For orientation: In agar diffusion tests the substance spreads into inoculated agar from a disc or well.
A further assay has as its system Klebsiella pneumoniae. Kind of assay: Antibacterial activity against Klebsiella pneumoniae at 200 ug/100uL after 24 hrs by agar well diffusion method. Type of assay: functional.
The next assay has as its system Streptococcus pyogenes. Description: Antibacterial activity against Streptococcus pyogenes at 200 ug/100uL after 24 hrs by agar well diffusion method. Type of assay: functional.
The subject of another assay is Salmonella typhi. Kind of assay: Antibacterial activity against Salmonella typhi at 200 ug/100uL after 24 hrs by agar well diffusion method. It counts as functional, Salmonella enterica subsp. enterica serovar Typhi.
A further assay concerns Proteus mirabilis. Kind of assay: Antibacterial activity against Proteus mirabilis after at 200 ug/100uL 24 hrs by agar well diffusion method. Type of assay: functional.

On to `C[C@@H]([C@H]1CC[C@H]2[C@@H]3CC[C@H]4C[C@@H](N(C)CCCc5ccccc5)CC[C@]4(C)[C@H]3CC[C@]12C)N(C)C`, for which, in the assay with Pseudomonas aeruginosa, the “inhibition zone (IZ)” value is recorded as 5.5 mm.

Turning to `C[C@@H]([C@H]1CC[C@H]2[C@@H]3CC[C@H]4C[C@@H](N(C)C(=O)c5ccccc5)CC[C@]4(C)[C@H]3CC[C@]12C)N(C)C`, the “inhibition zone (IZ)” value is on record as 6 mm in the assay with Pseudomonas aeruginosa; 6 mm in the assay with Shigella boydii; 12 mm in the assay with Staphylococcus aureus; 8 mm in the assay with Klebsiella pneumoniae; 6 mm with Streptococcus pyogenes; 6 mm in the assay with Salmonella typhi. The “inhibition zone (IZ)” value with Proteus mirabilis is given as 8 mm.

In the case of `C[C@@H]([C@H]1CC[C@H]2[C@@H]3CC[C@H]4C[C@@H](N(C)C(=O)/C=C/c5ccccc5)CC[C@]4(C)[C@H]3CC[C@]12C)N(C)C` [SALIGCINNAMIDE], the “inhibition zone (IZ)” value was determined as 6 mm in the assay on Pseudomonas aeruginosa; 6 mm with Shigella boydii; 12 mm in the assay with Staphylococcus aureus; 9 mm in the assay with Klebsiella pneumoniae; 8 mm in the assay on Streptococcus pyogenes; 6 mm in the assay with Salmonella typhi. Besides, in the assay with Proteus mirabilis, the “inhibition zone (IZ)” value came to 7 mm.

In the case of `CC1(C)S[C@@H]2[C@H](NC(=O)[C@H](N)c3ccccc3)C(=O)N2[C@H]1C(=O)O` [AMPICILLIN], the “inhibition zone (IZ)” value in the assay with Pseudomonas aeruginosa was determined as 15 mm; with Shigella boydii, 17 mm; in the assay on Staphylococcus aureus, 18 mm; in the assay with Klebsiella pneumoniae it was 17 mm; in the assay with Streptococcus pyogenes, 17 mm; in the assay on Salmonella typhi, 12 mm. Besides, the “inhibition zone (IZ)” value in the assay with Proteus mirabilis is 17 mm.

For `C[C@@H]([C@H]1CC[C@H]2[C@@H]3CC[C@H]4C[C@@H](N(C)C(=O)CCc5ccccc5)CC[C@]4(C)[C@H]3CC[C@]12C)N(C)C`, the “inhibition zone (IZ)” value in the assay with Pseudomonas aeruginosa stood at 7.5 mm; with Staphylococcus aureus, 11 mm; in the assay with Klebsiella pneumoniae, 10.5 mm.

On to `C[C@@H]([C@H]1CC[C@H]2[C@@H]3CC[C@H]4C[C@@H](N(C)Cc5ccccc5)CC[C@]4(C)[C@H]3CC[C@]12C)N(C)C`, for which the entries for the “inhibition zone (IZ)” value in the assay on Pseudomonas aeruginosa, with Staphylococcus aureus and in the assay with Klebsiella pneumoniae were 5.5 mm, 9 mm and 6 mm, respectively.

Take `CC1(C)S[C@@H]2[C@H](NC(=O)[C@H](N)c3ccc(O)cc3)C(=O)N2[C@H]1C(=O)O` [AMOXICILLIN]: the “inhibition zone (IZ)” value with Pseudomonas aeruginosa is listed as 15 mm; with Shigella boydii, 17 mm; with Staphylococcus aureus, 16 mm; in the assay with Klebsiella pneumoniae, 17 mm; with Streptococcus pyogenes it was 16 mm; in the assay with Salmonella typhi, 12 mm. For the same molecule, the “inhibition zone (IZ)” value in the assay with Proteus mirabilis worked out at 16 mm.

For the molecule `C[C@@H]([C@H]1CC[C@H]2[C@@H]3CC[C@H]4C[C@@H](NC(=O)c5ccccc5)CC[C@]4(C)[C@H]3CC[C@]12C)N(C)C` [EPIPACHYSAMINE D], in the assay with Staphylococcus aureus, the “inhibition zone (IZ)” value was 7 mm.
